# Laboratory results as given in patent US6586413B2, “Methods and compositions for reducing ischemic injury of the heart by administering adenosine receptor agonists and antagonists” (The United States of America as represented by the …, priority 1999, dated 2003).
# Like-named read-outs stand apart in the source and are kept apart here.
# How the values were obtained:
# [1] = tested on: cardiac ventricular myocytes cultured from chick embryos; experiment: Hypoxia-induced myocyte injury, agent present during prolonged (90 min) hypoxia with glucose deprivation; type: cell-based; conditions: for creatine kinase released during prolonged simulated ischemia: increasing concentrations, presence and absence of DPCPX (FIGS. 3A-3D); for cardioprotective effect when present during prolonged hypoxia (CK released, % myocytes killed): agonist present during prolonged hypoxia/simulated ischemia
# Method: Ventricular cells were cultured from chick embryos 14 days in ovo as previously described (16, 23). Cells were cultivated in a humidified 5% CO2-95% air mixture at 37° C. […] The medium was changed to a HEPES-buffered medium containing (mM) 139 NaCl, 4.7 KCl, 0.5 MgCl2, 0.9 CaCl2, 5 HEPES (N-2-hydroxyethylpiperazine-N′-2-ethanesulfonic acid) and 2% fetal bovine serum, pH 7.4, 37° C. before exposing the myocytes to the various conditions at 37° C. Control myocytes were maintained in the HEPES-buffered media under room air. Ninety-minute exposure of the myocytes to hypoxia with glucose deprivation was used to induce cell injury. Hypoxia was produced by placing the cells in a hypoxic incubator (NuAire) where O2 was replaced by N2 as previously described (16,23). Effects of adenosine receptor agonists and antagonists on the extent of myocyte injury were determined by exposure of the prepared cells to these agents during the prolonged hypoxia.
# (§1) Determination of myocyte injury was made at the end of the ninety-minute hypoxia, at which time myocytes were taken out of the hypoxic incubator and re-exposed to room air (normal % O2). Aliquots of the media were then obtained for creatine kinase (CK) activity measurement, which is followed by quantitation of the number of viable cells. Measurement of basal level of cell injury was made after parallel incubation of control cells under normal % O2. The extent of hypoxia-induced injury to the ventricular cell was quantitatively determined by the percentages of cells killed and by the amount of CK released into the media according to a previously described method (16, 23). […] In brief, the media were replaced with a trypsin-EDTA buffer to detach the cells, which was then followed by sedimentation of the viable myocytes. Parallel changes in % cells killed and CK released (16, 23) further validated this assay for % cells killed. The amount of CK was measured as enzyme activity (unit/mg), and increases in CK activity above the control level were determined. The percentage of cells killed was calculated as the number of cells obtained from the control group (representing cells not subjected to any hypoxia or drug treatment) minus the number of cells from the treatment group divided by number of cells in control group multiplied by 100%.
# [2] = tested on: isolated cardiac myocytes; experiment: Apoptotic cell death by DNA laddering on 1.5% agarose gel; type: cell-based; conditions: for apoptotic cell death (DNA laddering): 90 min ischemia and 30 min reoxygenation, 10 nM Cl-IB-MECA, 1 μM MRS1191
# Method: Such smearing is indicative of a culmination of the apoptotic cell death pathway. Isolated cardiac myocytes were exposed to 90-min ischemia and 30-min reoxygenation (lanes 4 and 5). […] Lanes 1 and 2 represent myocytes not exposed to ischemia or any agent. Data were representative of three experiments.
# Isolated cardiac myocytes were exposed to prolonged moderate simulated ischemia (17 hours with 2-3% O2). Lane 3 represents myocytes not exposed to ischemia or any agent. Lane 5 represents myocytes exposed to 17 hours of ischemia. […] Data were representative of three experiments.
# Lane 3 represents myocytes not exposed to any agent. Lane 5 represents cardiac myocytes exposed (for three hours) to an agent (a P2X receptor agonist, 2-methylthioATP) known to increase intracellular calcium concentration. Prolonged exposure to 2-methylthioATP or UTP caused increased apoptosis (Lane 7). […] Data were representative of two experiments.
# The effects of agents which target the adenosine receptor on apoptosis were initially examined in isolated cardiac myocytes exposed to ischemia (for 90 minutes and 30 minutes of reoxygenation) or agents which increase intracellular calcium levels. Increasing the level of intracellular calcium concentration induces non-ischemia-related apoptosis in vitro. Apoptotic cell death of cardiac myocytes was assessed by determining the extent of smearing or “DNA laddering” on 1.5% agarose gels.
# [3] = biological target: T1, human adenosine A3 receptor (Homo sapiens, UniProt P0DMS8); experiment: Preconditioning in chick atrial myocytes transfected with the human A3 receptor; type: cell-based; conditions: hA3R-transfected vs vector-transfected atrial myocytes
# T1 construct: full length cDNA encoding human adenosine A3 receptor subcloned in pcDNA3; expressed in transfected cells; host or cells: chick embryo atrial myocytes, transient calcium phosphate transfection with pcDNA3/hA3R
# T1 sequence (P0DMS8 1-318): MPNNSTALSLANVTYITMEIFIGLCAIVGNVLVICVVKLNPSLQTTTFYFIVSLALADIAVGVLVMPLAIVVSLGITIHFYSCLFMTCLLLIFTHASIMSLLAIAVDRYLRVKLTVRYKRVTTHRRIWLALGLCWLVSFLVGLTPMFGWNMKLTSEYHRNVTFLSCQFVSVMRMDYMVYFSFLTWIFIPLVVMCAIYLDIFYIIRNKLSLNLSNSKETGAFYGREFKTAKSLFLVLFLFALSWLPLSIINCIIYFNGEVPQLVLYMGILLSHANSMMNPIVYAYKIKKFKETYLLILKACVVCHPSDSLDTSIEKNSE
# Method: Transfection of chick atrial myocytes with the human A3 receptor—Atrial cells were cultured from chick embryos 14 days in ovo and transiently transfected with pcDNA3 (empty vector) or with pcDNA3/hA3R (full length cDNA encoding human adenosine A3 receptor subcloned in pcDNA3) using the calcium phosphate precipitation method. Forty-eight hours after transfection, the cells were exposed to the compounds of the invention and the percentage of myocytes killed during simulated ischemia was determined.
# The transfected myocytes were then exposed to the compound for 5 minutes, which was followed by replacement with fresh media and myocytes exposed to normal conditions (non-ischemic) for 10 minutes prior to being exposed to ninety minutes of ischemia. The decrease in the number of myocytes killed in A3 receptor cDNA-transfected myocytes as compared to vector-transfected myocytes was plotted as a function of the concentration of the compound. This decrease in myocytes killed represented an index of the protection mediated via the human adenosine A3 receptor.
# [4] = tested on: ventricular myocytes cultured from chick embryos; experiment: Pharmacological preconditioning: 5 min exposure to agent, then 90 min simulated ischemia; type: cell-based; conditions: for preconditioning / cardioprotective effect: agent alone, 5 min exposure before 90 min ischemia
# Method: FIG. 14 is a graph showing that the partial A1 receptor agonist, 8-butylaminoCPA, mimics the cardioprotective effect of ischemic preconditioning. Ventricular myocytes were cultured from chick embryos 14 days in ovo. The ability of the partial A1 agonist, 8-butylaminoCPA (8-butylamino-N^6-cyclopentyladenosine), to induce preconditioning was determined. In brief, myocytes were exposed to 8-butylaminoCPA at the indicated concentrations for 5 min, incubated for 10 min with agonist-free medium, and then exposed to simulated ischemia for 90 min. The extent of myocyte injury was quantitated at the end of the 90 min period by determinating the percentage of cells killed and the amount of creatine kinase (CK) released (units per milligram of cell protein). Data are means±SE of values from five independent experiments.
# as §1
# Media were then replaced with fresh media, which was then followed by exposure to 90-minute simulated ischemia and the data graphed.
# [5] = biological target: A3 receptor; conditions: cited from earlier work
# [6] = biological target: A2a receptor (Rattus norvegicus, UniProt P30543); conditions: Table II; cited from earlier work
# Sequence of A2a receptor (P30543 whole entry): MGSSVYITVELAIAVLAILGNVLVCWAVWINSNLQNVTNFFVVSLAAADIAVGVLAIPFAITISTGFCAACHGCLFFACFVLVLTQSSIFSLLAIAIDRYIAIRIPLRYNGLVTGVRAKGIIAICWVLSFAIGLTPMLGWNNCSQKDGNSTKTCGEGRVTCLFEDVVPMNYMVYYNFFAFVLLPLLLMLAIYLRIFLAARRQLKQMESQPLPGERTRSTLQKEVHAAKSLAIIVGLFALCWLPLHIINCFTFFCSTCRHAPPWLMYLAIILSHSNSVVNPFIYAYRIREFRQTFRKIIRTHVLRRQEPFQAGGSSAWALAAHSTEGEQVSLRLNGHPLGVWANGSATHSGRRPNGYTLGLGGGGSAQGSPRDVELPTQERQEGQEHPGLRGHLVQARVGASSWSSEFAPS
# [7] = biological target: T2, A1 receptor (Rattus norvegicus, UniProt P25099); conditions: Table II; cited from earlier work
# T2 sequence (P25099 1-326): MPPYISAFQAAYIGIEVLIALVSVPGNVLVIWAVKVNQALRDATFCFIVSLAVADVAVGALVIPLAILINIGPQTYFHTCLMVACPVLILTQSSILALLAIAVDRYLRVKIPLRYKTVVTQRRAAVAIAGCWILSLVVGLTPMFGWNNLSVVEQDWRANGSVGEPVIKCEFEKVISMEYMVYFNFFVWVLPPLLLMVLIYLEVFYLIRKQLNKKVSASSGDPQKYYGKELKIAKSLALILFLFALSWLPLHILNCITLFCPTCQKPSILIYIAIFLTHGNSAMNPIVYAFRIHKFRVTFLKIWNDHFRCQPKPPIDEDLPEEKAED
# [8] = tested on: cardiac ventricular myocytes cultured from chick embryos; experiment: Hypoxia-induced myocyte injury, agent present during prolonged (90 min) hypoxia with glucose deprivation; type: cell-based; conditions: agonist added upon reoxygenation after 90 minute hypoxia, kept one additional hour; hypoxia alone 26.5±1.0
smiles,measurement,setting,value
"CCOC(=O)C1=C(C)NC(c2ccccc2)=C(C(=O)OCc2ccccc2)C1C#Cc1ccccc1 (stereo not shown) [MRS 1191, 3-ethyl-5-benzyl-2-methyl-6-phenyl-4-phenylethynyl-1,4-(1)-dihydropyridine-3,5-dicarboxylate]","effect of antagonist on A1 agonist (CCPA, CHA, ADAC)-induced cardioprotection",[1]; antagonist with A1 agonist during prolonged hypoxia,neither MRS 1191 nor MRS 1097 was able to block the CCPA-induced cardioprotection
same,"effect of antagonist on A3 agonist (IB-MECA, Cl-IB-MECA)-induced cardioprotection",[1]; antagonist with A3 agonist during prolonged hypoxia,blocked the Cl-IB-MECA-induced cardioprotection
same,apoptotic cell death (DNA laddering),[2],but not the A3 antagonist (MRS1191) reduced apoptotic cell death
CNC(=O)C1OC(n2cnc3c(NCc4cccc(C#CCNC(=O)Cc5ccc(NC(=O)Cc6ccc(Nc7ncnc8c7ncn8C7OC(CO)C(O)C7O)cc6)cc5)c4)ncnc32)C(O)C1O (stereo not shown) [MRS 1543],preconditioning / protection mediated via human adenosine A3 receptor,[3],can precondition and induces a cardioprotective effect via the human adenosine A3 receptor
same,protective effect in combined presence of DPCPX and MRS1191,[4]; DPCPX (1 μM) plus MRS1191 (1 μM),completely abolished the protective effect of MRS1543
same,preconditioning / cardioprotective effect,[4],can pharmacologically precondition the cardiac myocyte and induce a potent cardioprotective effect
same,protective effect in presence of DPCPX,[4]; excess DPCPX (1 μM),only partially blocked by A1 antagonist DPCPX
same,protective effect in presence of MRS1191,[4]; excess MRS1191 (1 μM),only partially attenuated by the A3 antagonist MRS1191
"CCNC(=O)C1OC(n2cnc3c(NC4CCCCC4)ncnc32)C(O)C1O (stereo not shown) [N^6-cyclohexyl NECA, N6-cyclohexyl 5′-N-ethylcarboxamidoadenosine]",Ki,[5]; Table II,16 nM
"CNC(=O)C1OC(n2cnc3c(NOc4ccccc4)ncnc32)C(O)C1O (stereo not drawn) [Compound 11, 6-(O-Phenylhydroxylamino)purine-9-beta-ribofuranoside-5′-N-methyluronamide]",Ki,[5]; Table II,1340 nM
same,Ki,[6],66300 nM
same,Ki,[7],2060 nM
CNC(=O)C1OC(n2cnc3c(NCc4cccc(C#CCNC(=O)CCC(=O)Nc5cccc(/C=C/c6nc7c(c(=O)n(C)c(=O)n7C)n6C)c5)c4)ncnc32)C(O)C1O (stereo not shown) [MRS 1528],preconditioning / protection mediated via human adenosine A3 receptor,[3],can cause preconditioning of the cardiac myocytes via human adenosine A3 receptor
same,preconditioning effect in presence of A2a agonist CGS21680,[4]; CGS21680 (0.3 μM),protective effect of low concentrations of MRS1528 is attenuated by the A2a agonist CGS21680 whereas the protective effect of high concentrations of MRS1528 is not affected
same,preconditioning effect in presence of A2a antagonist CSC,[4]; CSC (1 μM),unaffected by the A2a receptor antagonist CSC
same,preconditioning / cardioprotective effect,[4],can activate A3 receptor to induce preconditioning and can simultaneously block the A2a receptor to enhance its preconditioning effect
"CCNC(=O)C1OC(n2cnc3c(NC(=O)Nc4ccccc4C(F)(F)F)ncnc32)C(O)C1O (stereo not shown) [Compound 4d, N^6-((2-trifluoromethyl)carbamoyl)adenosine-5′-uronamide]",Ki,[5]; Table II,54 nM
same,Ki,[6],> 10000 nM
same,Ki,[7],384 nM
CNC(=O)C1CC(O)C(n2cnc3c(NCc4cccc(I)c4)nc(Cl)nc32)O1 (stereo not shown) [MRS 584],creatine kinase released during prolonged simulated ischemia,[1],cardioprotective effects
same,preconditioning / protection mediated via human adenosine A3 receptor,[3],can exert the cardioprotective effect of preconditioning via the human adenosine A3 receptor
CNC(=O)C1OC(n2cnc3c(NCc4cccc(I)c4)nc(NC)nc32)C(O)C1O (stereo not shown) [MRS 537],creatine kinase released during prolonged simulated ischemia,[1],cardioprotective effects
same,preconditioning / protection mediated via human adenosine A3 receptor,[3],can exert the cardioprotective effect of preconditioning via the human adenosine A3 receptor
"CNC(=O)[C@H]1O[C@@H](n2cnc3c(NCc4cccc(I)c4)nc(Cl)nc32)[C@H](O)[C@@H]1O [Cl-IB-MECA, 2-chloro-N^6-(3-iodobenzyl)adenosine-5′-N-methyluronamide]","cardioprotective effect when present during prolonged hypoxia (CK released, % myocytes killed)",[1],capable of protecting the cardiac myocytes against hypoxia-induced injury
same,% myocytes killed,[8],23.0±1.4%
same,apoptotic cell death (DNA laddering),[2],reduced apoptotic cell death of cardiac myocytes
same,apoptotic cell death in the presence of 2-methylthioATP,"[2]; co-incubation, no ischemia",resulted in a decrease in apoptotic cell death
same,apoptosis (DNA laddering),"[2]; prolonged moderate ischemia, 17 hours with 2-3% O2",reduced apoptosis
same,preconditioning / cardioprotective effect,[4],caused a potent cardioprotective effect
"NCCNC(=O)Cc1ccc(NC(=O)Cc2ccc(Nc3ncnc4c3ncn4[C@@H]3O[C@H](CO)[C@@H](O)[C@H]3O)cc2)cc1 [ADAC, N^6-[4-[[[4-[[[(2-aminoethyl)amino]carbonyl]methyl]anilino]carbonyl]methyl]phenyl]adenosine]","cardioprotective effect when present during prolonged hypoxia (CK released, % myocytes killed)",[1],able to protect the myocytes when present during the prolonged hypoxia
same,Ki,[5]; Compound 8 table,4 nM
"OC[C@H]1O[C@@H](n2cnc3c(NC4CCCC4)nc(Cl)nc32)[C@H](O)[C@@H]1O [CCPA, 2-chloro-N^6-cyclopentyladenosine]","cardioprotective effect when present during prolonged hypoxia (CK released, % myocytes killed)",[1],caused a dose-dependent reduction in the percentage of myocytes killed
same,% myocytes killed,[8],22.1±1.5%
same,preconditioning / cardioprotective effect,[4],causes a pronounced cardioprotective effect in the cardiac myocyte
